Here are results for 16 molecules from patent publication US20250381243A1, “HETEROCYCLES AND USES THEREOF” (Kumquat Biosciences Inc., priority 2022, published 2025).

pIC50: −log10 of the molar value.

The experiment has as its system A549 cells. As to the kind of experiment: Cell proliferation assay (CellTiter-Glo), cells with K-Ras G12S mutation. In kind it is cell-based. To be noted: Homo sapiens, ≤500 nM, read-out: Inhibition of A549 Cells (IC50). The method, boiled down:
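A549 (K-Ras G12S) cells in RPMI-1640 with 10% heat-inactivated FBS, plated in standard or ultra-low-attachment 384-well format, treated next day with a dilution series (e.g., 10-point, 3-fold). Viability read by CellTiter-Glo luminescence about 6 days later; IC50 from four-parameter fit.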
For orientation: In ATP-based viability assays light output follows the ATP content of the culture.
Usually pIC50 stands for the negative decadic logarithm of the IC50, by convention in mol/L. Regarding `C[C@H]1CC[C@]2(CN(C(=O)n3cnc(F)n3)[C@@H]2C2(C)CC2)CN1c1nc(OC[C@@]23CCCN2C[C@H](F)C3)nc2c(F)c(-c3ccc(F)c4sc(N)c(C#N)c34)c(Cl)cc12` [Compound 185, 2-amino-4-(6-chloro-8-fluoro-4-((1R,4R,7S)-2-(3-fluoro-1H-1,2,4-triazole-1-carbonyl)-7-methyl-1-(1-methylcyclopropyl)-2,6-diazaspiro[3.5]nonan-6-yl)-2-(((2R,7aS)-2-fluorotetrahydro-1H-pyrrolizin-7a(5H)-yl)methoxy)quinazolin-7-yl)-7-fluorobenzo[b]thiophene-3-carbonitrile], the pIC50 is not below 6.30.

As for `CN(C[C@@H]1CN(C(=O)n2cnc(F)n2)[C@@H]1C1(C(F)F)CC1)c1nc(OC[C@@]23CCCN2C[C@H](F)C3)nc2c(F)c(-c3ccc(F)c4sc(N)c(C#N)c34)c(Cl)cc12` [Compound 186, 2-amino-4-(6-chloro-4-((((2S,3R)-2-(1-(difluoromethyl)cyclopropyl)-1-(3-fluoro-1H-1,2,4-triazole-1-carbonyl)azetidin-3-yl)methyl)(methyl)amino)-8-fluoro-2-(((2R,7aS)-2-fluorotetrahydro-1H-pyrrolizin-7a(5H)-yl)methoxy)quinazolin-7-yl)-7-fluorobenzo[b]thiophene-3-carbonitrile], the pIC50 was not below 6.30. `CC(C)[C@H]1N(C(=O)n2cnc(Cl)n2)C[C@]12CCCN(c1nc(OC[C@@]34CCCN3C[C@H](F)C4)nc3c(F)c(-c4ccc(F)c5sc(N)c(C#N)c45)c(Cl)cc13)C2` [Compound 190, 2-amino-4-(6-chloro-4-((1R,4R)-2-(3-chloro-1H-1,2,4-triazole-1-carbonyl)-1-isopropyl-2,6-diazaspiro[3.5]nonan-6-yl)-8-fluoro-2-(((2R,7aS)-2-fluorotetrahydro-1H-pyrrolizin-7a(5H)-yl)methoxy)quinazolin-7-yl)-7-fluorobenzo[b]thiophene-3-carbonitrile]: the pIC50 is not below 6.30. As for `CC(C)[C@H]1N(C(=O)n2cnc(Cl)n2)C[C@]12CC[C@H](C)N(c1nc(OC[C@@]34CCCN3C[C@H](F)C4)nc3c(F)c(-c4ccc(F)c5sc(N)c(C#N)c45)c(Cl)cc13)C2` [Compound 192, 2-amino-4-(6-chloro-4-((1R,4R,7S)-2-(3-chloro-1H-1,2,4-triazole-1-carbonyl)-1-isopropyl-7-methyl-2,6-diazaspiro[3.5]nonan-6-yl)-8-fluoro-2-(((2R,7aS)-2-fluorotetrahydro-1H-pyrrolizin-7a(5H)-yl)methoxy)quinazolin-7-yl)-7-fluorobenzo[b]thiophene-3-carbonitrile], the figure is not below 6.30; as for `C[C@H]1CC[C@]2(CN(C(=O)n3cnc(F)n3)[C@@H]2C2CCC2)CN1c1nc(OC[C@@]23CCCN2C[C@H](F)C3)nc2c(F)c(-c3ccc(F)c4sc(N)c(C#N)c34)c(Cl)cc12` [Compound 199, 2-amino-4-(6-chloro-4-((1R,4R,7S)-1-cyclobutyl-2-(3-fluoro-1H-1,2,4-triazole-1-carbonyl)-7-methyl-2,6-diazaspiro[3.5]nonan-6-yl)-8-fluoro-2-(((2R,7aS)-2-fluorotetrahydro-1H-pyrrolizin-7a(5H)-yl)methoxy)quinazolin-7-yl)-7-fluorobenzo[b]thiophene-3-carbonitrile], not below 6.30; as for `CC(C)[C@H]1N(C(=O)n2cnc(F)n2)C[C@@]12CN(c1nc(OC[C@@]34CCCN3C[C@H](F)C4)nc3c(F)c(-c4ccc(F)c5sc(N)c(C#N)c45)c(Cl)cc13)CCO2` [Compound 204, 2-amino-4-(6-chloro-8-fluoro-4-((1R,4S)-2-(3-fluoro-1H-1,2,4-triazole-1-carbonyl)-1-isopropyl-5-oxa-2,8-diazaspiro[3.5]nonan-8-yl)-2-(((2R,7aS)-2-fluorotetrahydro-1H-pyrrolizin-7a(5H)-yl)methoxy)quinazolin-7-yl)-7-fluorobenzo[b]thiophene-3-carbonitrile], not below 6.30. Take `CC1CN(c2nc(OC[C@@]34CCCN3C[C@H](F)C4)nc3c(F)c(-c4ccc(F)c5sc(N)c(C#N)c45)c(Cl)cc23)CC1N(C)C(=O)n1cncn1` (stereo partly drawn) [Compound 206, N-(1-(7-(2-amino-3-cyano-7-fluorobenzo[b]thiophen-4-yl)-6-chloro-8-fluoro-2-(((2R,7aS)-2-fluorotetrahydro-1H-pyrrolizin-7a(5H)-yl)methoxy)quinazolin-4-yl)-4-methylpyrrolidin-3-yl)-N-methyl-1H-1,2,4 triazole-1-carboxamide]: the pIC50 was not below 6.30.

In the case of `CC(C)[C@@H]1[C@H](CN(C)c2nc(OC[C@@]34CCCN3C[C@H](F)C4)nc3c(F)c(-c4ccc(F)c5sc(N)c(C#N)c45)c(Cl)cc23)CN1C(=O)n1cnc(Cl)n1` [Compound 208, 2-amino-4-(6-chloro-4-((((2R,3R)-1-(3-chloro-1H-1,2,4-triazole-1-carbonyl)-2-isopropylazetidin-3-yl)methyl)(methyl)amino)-8-fluoro-2-(((2R,7aS)-2-fluorotetrahydro-1H-pyrrolizin-7a(5H)-yl)methoxy)quinazolin-7-yl)-7-fluorobenzo[b]thiophene-3-carbonitrile], the pIC50 was not below 6.30. The same measure for `CCN(C(=O)n1cncn1)C1CCCN(c2nc(OC[C@@]34CCCN3C[C@H](F)C4)nc3c(F)c(-c4ccc(F)c5sc(N)c(C#N)c45)c(Cl)cc23)C1` (stereo partly drawn) [Compound 209, N-(1-(7-(2-amino-3-cyano-7-fluorobenzo[b]thiophen-4-yl)-6-chloro-8-fluoro-2-(((2R,7aS)-2-fluorotetrahydro-1H-pyrrolizin-7a(5H)-yl)methoxy)quinazolin-4-yl)piperidin-3-yl)-N-ethyl-1H-1,2,4-triazole-1-carboxamide]: not below 6.30; for `CC(C)[C@H]1N(C(=O)n2cnc(Cl)n2)C[C@@]1(C)CN(C)c1nc(OC[C@@]23CCCN2C[C@H](F)C3)nc2c(F)c(-c3ccc(F)c4sc(N)c(C#N)c34)c(Cl)cc12` [Compound 210, 2-amino-4-(6-chloro-4-((((2R,3R)-1-(3-chloro-1H-1,2,4-triazole-1-carbonyl)-2-isopropyl-3-methylazetidin-3-yl)methyl)(methyl)amino)-8-fluoro-2-(((2R,7aS)-2-fluorotetrahydro-1H-pyrrolizin-7a(5H)-yl)methoxy)quinazolin-7-yl)-7-fluorobenzo[b]thiophene-3-carbonitrile]: not below 6.30. On to `CC(C)[C@H]1N(C(=O)n2cnc(F)n2)C[C@]12CC[C@H](C)N(c1nc(OC[C@@]34CCCN3C[C@H](F)C4)nc3c(F)c(-c4ccc(F)c5sc(N)c(C#N)c45)c(Cl)cc13)C2` [Compound 213, 2-amino-4-(6-chloro-8-fluoro-4-((1R,4R,7S)-2-(3-fluoro-1H-1,2,4-triazole-1-carbonyl)-1-isopropyl-7-methyl-2,6-diazaspiro[3.5]nonan-6-yl)-2-(((2R,7aS)-2-fluorotetrahydro-1H-pyrrolizin-7a(5H)-yl)methoxy)quinazolin-7-yl)-7-fluorobenzo[b]thiophene-3-carbonitrile], for which the pIC50 was not below 6.30.

For `CC1([C@H]2N(C(=O)n3cnc(F)n3)C[C@]23CCCN(c2nc(OC[C@@]45CCCN4C[C@H](F)C5)nc4c(F)c(-c5ccc(F)c6sc(N)c(C#N)c56)c(Cl)cc24)C3)CC1` [Compound 216, 2-amino-4-(6-chloro-8-fluoro-4-((1R,4R)-2-(3-fluoro-1H-1,2,4-triazole-1-carbonyl)-1-(1-methylcyclopropyl)-2,6-diazaspiro[3.5]nonan-6-yl)-2-(((2R,7aS)-2-fluorotetrahydro-1H-pyrrolizin-7a(5H)-yl)methoxy)quinazolin-7-yl)-7-fluorobenzo[b]thiophene-3-carbonitrile], the pIC50 was not below 6.30. Turning to `COCC1([C@H]2N(C(=O)n3cnc(F)n3)C[C@]23CCCCN(c2nc(OC[C@@]45CCCN4C[C@H](F)C5)nc4c(F)c(-c5ccc(F)c6sc(N)c(C#N)c56)c(Cl)cc24)C3)CC1` [Compound 219, 2-amino-4-(6-chloro-8-fluoro-4-((1S,4R)-2-(3-fluoro-1H-1,2,4-triazole-1-carbonyl)-1-(1-(methoxymethyl)cyclopropyl)-2,6-diazaspiro[3.6]decan-6-yl)-2-(((2R,7aS)-2-fluorotetrahydro-1H-pyrrolizin-7a(5H)-yl)methoxy)quinazolin-7-yl)-7-fluorobenzo[b]thiophene-3-carbonitrile], the pIC50 is not below 6.30. The same measure for `C[C@H]1CC[C@]2(CN(C(=O)n3cnc(F)n3)[C@@H]2C2(C)CC2)CN1c1nc(OC[C@]23CCCN2CC(=C(F)F)C3)nc2c(F)c(-c3ccc(F)c4sc(N)c(C#N)c34)c(Cl)cc12` [Compound 223, 2-amino-4-(6-chloro-2-(((R)-2-(difluoromethylene)tetrahydro-1H-pyrrolizin-7a(5H)-yl)methoxy)-8-fluoro-4-((1R,4R,7S)-2-(3-fluoro-1H-1,2,4-triazole-1-carbonyl)-7-methyl-1-(1-methylcyclopropyl)-2,6-diazaspiro[3.5]nonan-6-yl)quinazolin-7-yl)-7-fluorobenzo[b]thiophene-3-carbonitrile]: not below 6.30; for `CC(C)[C@H]1N(C(=O)n2cnc(O)n2)C[C@]12CCCCN(c1nc(OC[C@@]34CCCN3C[C@H](F)C4)nc3c(F)c(-c4ccc(F)c5sc(N)c(C#N)c45)c(Cl)cc13)C2` [Compound 224, 2-amino-4-(6-chloro-8-fluoro-2-(((2R,7aS)-2-fluorotetrahydro-1H-pyrrolizin-7a(5H)-yl)methoxy)-4-((1R,4R)-2-(3-hydroxy-1H-1,2,4-triazole-1-carbonyl)-1-isopropyl-2,6-diazaspiro[3.6]decan-6-yl)quinazolin-7-yl)-7-fluorobenzo[b]thiophene-3-carbonitrile]: not below 6.30. As for `CC(C)[C@H]1N(C(=O)n2cnc(C(F)F)n2)C[C@]12CCCCN(c1nc(OC[C@@]34CCCN3C[C@H](F)C4)nc3c(F)c(-c4ccc(F)c5sc(N)c(C#N)c45)c(Cl)cc13)C2` [Compound 226, 2-amino-4-(6-chloro-4-((1R,4R)-2-(3-(difluoromethyl)-1H-1,2,4-triazole-1-carbonyl)-1-isopropyl-2,6-diazaspiro[3.6]decan-6-yl)-8-fluoro-2-(((2R,7aS)-2-fluorotetrahydro-1H-pyrrolizin-7a(5H)-yl)methoxy)quinazolin-7-yl)-7-fluorobenzo[b]thiophene-3-carbonitrile], the figure is not below 6.30.
